Results published in paper PMC8476755 (Frontiers in Chemistry, 2021).
Numbering of substitutions follows the chain as printed. One block for each molecule: values may come before it.

How the values were obtained:
[1] = system: four human GABA transporters (GATs); experiment: [3H]GABA uptake assay, single concentration screening at the four human GATs; assay type: cell-based; details: 100 µM test compound, n = 2
Procedure: (§1) Based on this finding, only 2 and bicyclo-GABA were further investigated pharmacologically.
(§2) (D–E) Gaddum-Schild analysis of bicyclo-GABA, yielding a Schild slope of 1.02 indicative of competitive inhibition with a calculated K B of 0.47 µM (n = 4). (F) Characterization of bicyclo-GABA and 2 at α1β2γ2 GABAA receptors by use of the FMP assay. […] Data are presented as means ± S.E.M.
(§3) Briefly, cells were seeded in white 96-well plates (White Opaque Tissue Culture (TC) plated 96-well Microplate) pre-coated with PDL. Medium was removed on the following day and cells washed with 100 µL/well assay buffer (HBSS supplemented with 20 mM HEPES, 1 mM CaCl2 and 1 mM MgCl2, pH 7.4). […] The cells were washed 3 times with 100 µL/well ice-cold assay buffer, 150 µL/well MicroScint™20 was subsequently added before the plate was shaken for at least 1 h. The plate was counted in a Packard TopCounter microplate scintillation counter (PerkinElmer) for 3 min per well. Typical counts per minute for the different GATs were in the range of: wt hBGT1 (100–4,000), BGT1 Q299 (100–1,000), hBGT E52Y (150–500), BGT1 E52A (150–8,000), BGT1 E52A + Q299L (150–500), wt GAT3 (200–8,000), GAT3 L314Q (100–1,500), wt GAT1 (100–10,000) and wt GAT2 (150–7,500). […] Data presented is the pooled data of at least three independent experiments with three technical replicates if not stated otherwise in figure legends. Concentration–response curves were fitted by non-linear regression to the sigmoidal concentration-response model with GraphPad Prism (version 9.0.0, GraphPad Software, San Diego, CA, United States) as described ([Lie et al., 2020]).

BGT1 E52A = target: T1, BGT1 E52A (Homo sapiens, UniProt P48065, E52A); experiment: [3H]GABA uptake assay, transient expression in tsA201 cells; assay type: cell-based; details: BGT1 E52A vs BGT1 wt
T1 construct: expressed in transfected cells; host or cells: tsA201 (transformed HEK293), transient
T1 sequence (P48065 1-614 E52A): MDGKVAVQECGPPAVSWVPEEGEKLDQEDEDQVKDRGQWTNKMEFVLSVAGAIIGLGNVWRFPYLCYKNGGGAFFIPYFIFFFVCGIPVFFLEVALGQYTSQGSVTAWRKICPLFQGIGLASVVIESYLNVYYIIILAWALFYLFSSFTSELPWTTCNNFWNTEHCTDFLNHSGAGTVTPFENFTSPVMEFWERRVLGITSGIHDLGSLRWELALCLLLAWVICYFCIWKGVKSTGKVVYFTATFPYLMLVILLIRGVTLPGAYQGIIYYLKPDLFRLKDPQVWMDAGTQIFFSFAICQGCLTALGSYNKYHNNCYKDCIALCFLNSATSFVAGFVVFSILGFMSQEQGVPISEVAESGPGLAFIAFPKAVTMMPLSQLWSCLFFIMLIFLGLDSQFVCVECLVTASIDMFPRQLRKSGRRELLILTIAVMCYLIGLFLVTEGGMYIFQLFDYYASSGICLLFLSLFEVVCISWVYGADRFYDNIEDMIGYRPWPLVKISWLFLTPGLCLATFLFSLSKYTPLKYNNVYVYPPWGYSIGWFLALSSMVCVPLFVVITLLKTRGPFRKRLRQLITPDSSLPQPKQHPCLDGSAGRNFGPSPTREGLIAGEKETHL
Procedure: The residue Q299 in human BGT1 corresponds to leucine in all other GATs (human, rat, mouse), while E52 corresponds to tyrosine in GAT1 (human, rat, mouse) but is conserved among GAT2, GAT3 and BGT1 (human, rat, mouse) (Figure 6A) ([Kickinger et al., 2019]).
(§4) The tsA201 cell line (a transformed HEK293 cell line), the Flp-In CHO cell lines stably expressing human (h) GATs and the HEK293 cell line stably expressing human α1β2γ2 GABAA receptors have been described previously and were cultured accordingly ([Al-Khawaja et al., 2014]; [Falk-Petersen et al., 2020]). The tsA201 cell line used for transient expression of hGATs was transfected with DNA constructs (8 μg per 10 cm plate) using 40 μL PolyFect transfection reagent according to the manufacturer’s protocol (Qiagen).
as §3, with “well.” for “well. Typical counts per minute for the different GATs were in the range of: wt hBGT1 (100–4,000), BGT1 Q299 (100–1,000), hBGT E52Y (150–500), BGT1 E52A (150–8,000), BGT1 E52A + Q299L (150–500), wt GAT3 (200–8,000), GAT3 L314Q (100–1,500), wt GAT1 (100–10,000) and wt GAT2 (150–7,500).”

GAT3 L314Q = target: T2, GAT3 L314Q (Homo sapiens, UniProt P48066, L314Q); experiment: as above; assay type: cell-based; details: GAT3 L314Q, tsA201 cells; read-out: pIC50 ± S.E.M. (converted)
T2 construct: expressed in transfected cells; host or cells: tsA201 (transformed HEK293), transient
T2 sequence (P48066 1-632 L314Q): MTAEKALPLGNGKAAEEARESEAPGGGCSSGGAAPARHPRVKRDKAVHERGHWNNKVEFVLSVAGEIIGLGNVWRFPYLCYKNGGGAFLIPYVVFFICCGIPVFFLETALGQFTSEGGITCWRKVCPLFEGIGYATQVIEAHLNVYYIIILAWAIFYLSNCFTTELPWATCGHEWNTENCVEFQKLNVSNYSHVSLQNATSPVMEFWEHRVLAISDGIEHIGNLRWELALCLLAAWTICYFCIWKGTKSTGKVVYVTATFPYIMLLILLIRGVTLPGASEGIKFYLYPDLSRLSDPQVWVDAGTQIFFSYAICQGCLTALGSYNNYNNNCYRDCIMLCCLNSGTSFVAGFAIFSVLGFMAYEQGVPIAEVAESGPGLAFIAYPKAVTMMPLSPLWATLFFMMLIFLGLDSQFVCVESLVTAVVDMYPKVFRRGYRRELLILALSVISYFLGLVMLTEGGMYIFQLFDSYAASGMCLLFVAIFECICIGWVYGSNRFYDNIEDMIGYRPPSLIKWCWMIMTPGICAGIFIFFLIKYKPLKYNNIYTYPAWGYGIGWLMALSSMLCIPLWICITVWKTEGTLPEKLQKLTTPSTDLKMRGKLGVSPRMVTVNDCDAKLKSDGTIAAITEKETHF
Description: According to the docking and MD results, the sidechains of Q299 and E52 were identified to form crucial interactions with the protonated nitrogen of both compounds. The residue Q299 in human BGT1 corresponds to leucine in all other GATs (human, rat, mouse), while E52 corresponds to tyrosine in GAT1 (human, rat, mouse) but is conserved among GAT2, GAT3 and BGT1 (human, rat, mouse) (Figure 6A) ([Kickinger et al., 2019]). Thus, we engineered the corresponding mutants Q299L and E52Y in human BGT1 and predicted that the introduction of these mutations would lead to decreased activity of both bicyclo-GABA and 2 due to the loss of essential hydrogen bond interactions. Furthermore, we wanted to test the double mutant E52Y + Q299L. However, in a previous study this mutant was proven non-functional ([Kickinger et al., 2020]). Instead, we generated the double mutant E52A + Q299L as well as the single mutant E52A. For these mutants we predicted decreased activity. Lastly, the reciprocal mutation to BGT1 Q299L was created in GAT3 (L314Q), ideally expecting a gain-of-function.
FIGURE 6 (A) Pocket alignment of the orthosteric site of the four GAT subtypes colored according to the default ClustalX color scheme ([Larkin et al., 2007]). The pocket was defined as all corresponding GAT residues (15 in total) that are within a distance of 4.5 Å of the co-crystallized ligand leucine in the homologous LeuT crystal structure (PDB ID 2A65) ([Yamashita et al., 2005]) according to the alignment by Kickinger et al. ([Kickinger et al., 2019]). The mutated residues in BGT1 and the corresponding residues in GAT1-3 are indicated by a red box. The numbering of all residues within the orthosteric pocket can be found in the Supplementary Table S1.
as §4, with “(Qiagen). All DNA constructs used have been described previously: wt hBGT1, wt GAT3 ([Kvist et al., 2009]), BGT1 Q299, GAT3 L314Q ([Jørgensen et al., 2017]), hBGT E52Y, BGT1 E52A and BGT1 E52A + Q299L ([Kickinger et al., 2020]).” for “(Qiagen).”
as §3

BGT1 [2] = target: T3, BGT1 (Homo sapiens, UniProt P48065); experiment: [3H]GABA uptake assay, single concentration screening; assay type: cell-based; details: read-out: Percentage inhibition of [3H]GABA uptake at BGT1, 100 µM test compound; n = 2
T3 construct: expressed in transfected cells
T3 sequence (P48065 1-614): T1 sequence (P48065 1-614 E52A) with A52E
Procedure: as §1, §2
as §3, with “Concentration–response curves were fitted by non-linear regression to the sigmoidal concentration-response model with GraphPad Prism (version 9.0.0, GraphPad Software, San Diego, CA, United States) as described ([Lie et al., 2020]).” left out

BGT1 [3] = system: BGT1; design: method as in Kobayashi et al., 2014; details: ref Kobayashi et al., 2014, cited from earlier work

Structure (SMILES): CN(C)[C@@]12CC[C@H](C(=O)O)[C@@H]1C2 [compound 3]
Percentage inhibition of [3H]GABA uptake at any of the GATs [1]: < 15%

Increase in activity compared to wildtype (BGT1 E52A): not significantly altered
IC50 (GAT3 L314Q): 5.01 µM
Structure (SMILES): NCCCC(=O)O [GABA, γ-aminobutyric acid]

inhibition at 100 µM (BGT1 [2]): 68%
Structure (SMILES): CC1(CC(=O)O)CC1N (centres unmarked) [4a]

Structure (SMILES): NC1CC1CC(=O)O [compound 1, (2S,3R)-4-amino-3,4-methanobutyric acid]
Less potent than bicyclo-GABA (BGT1 [3]): 9 times
Higher activity for BGT1 than GAT3 (BGT1 [3]; subtype-selectivity BGT1 vs GAT3): three times higher activity

Structure (SMILES): CCC1(CC(=O)O)CC1N (centres unmarked) [4b]
Percentage inhibition of [3H]GABA uptake at any of the GATs [1]: < 15%

Structure (SMILES): NC1CC1(CC(=O)O)c1ccccc1 (centres unmarked) [4c]
Percentage inhibition of [3H]GABA uptake at any of the GATs [1]: < 15%
